The results in this text go back to patent publication US6486158B1, “[4,5]-fused-3,6-disubstituted-pyridazines with sulfur-containing substituents in position three for the treatment of neoplasia” (Cell Pathways, Inc., priority 1998, dated 2002).

Where only a bound is given, the exact number is not on record here.

Data set [1] relates to human colon carcinoma cell line, SW-480. Nature of the data set: Sulforhodamine B (SRB) tumor cell growth inhibition assay. Format: cell-based. To be noted: SW-480 cells, six days continuous exposure; for inhibition at 100 µM: Homo sapiens, SW480, 144 h. On the procedure:
The compounds of this invention were assayed for their growth inhibitory activity on the human colon carcinoma cell line, SW-480 obtained from ATCC (Rockville, Md.), to ascertain the degree of growth inhibition (Skehan et al., J. Natl. Cancer Instit. 82:1107-1112, 1990). Growth inhibition of this cell line is indicative of a benefit on precancerous lesions and neoplasms. The cell line and growth assay employed for such experiments are well characterized, and are used to evaluate the anti-neoplastic properties of compounds (Piazza, Cancer Research Vol. 57, pp. 2452-2459, 1997). The assay is used by the United States National Cancer Institute in its screening program for new anti-cancer drugs.
Drug stock solutions were made in 100% DMSO and were then diluted with RPMI media for cell culture testing. All drug solutions were prepared fresh on the day of testing. The cultured cells were obtained at passage #99 and grown in RPMI media supplemented with 5% fetal calf serum, and 2 mM glutamine, […] penicillin, 100 U/ml streptomycin, and 0.25 μg/ml amphotericin. The cultures were maintained in a humidified atmosphere of 95% air and 5% CO2 at 37° C. The cultures were passaged at preconfluent densities using a solution of 0.05% trypsin and 0.53 mM EDTA. Cells were plated at 1000 cells/well for 96 well flat-bottom microtiter plates.
Tumor cell growth inhibition was assessed using the Sulforhodamine B (SRB) protein binding assay. In this assay, tumor cells were plated in 96-well plates and treated with drug-containing media for six days (continuous exposure). For each plate, 6 wells were designated as no treatment controls, six wells as vehicle (0.1% DMSO) controls, and the remaining wells for drug dilutions with three wells per drug concentration. At the end of the exposure period, the cells were fixed and stained with sulforhodamine B, a protein binding dye. The dye was then solubilized, and the optical density of the resulting solution was determined on a 96-well plate reader. The mean optical density of the treated wells was then divided by the mean optical density in the control wells (6 wells of each) to determine the effect of the drug on the cells. Dye intensity is proportional to the number of cells or amount of protein per well. The resultant “percent inhibition” values, which then represents the degree of growth inhibition, for the indicated compounds from the Examples are tabulated in Table 1.
For one compound of this invention, an IC50 value was determined. An IC50 value is equivalent to the concentration of compound needed to inhibit tumor cell growth by 50%. The IC50 value was obtained graphically by plotting and connecting the mean growth inhibition values for each drug concentration tested. The experiment included three wells per drug concentration. Concentration was plotted on a log scale on the X-axis.

Data set [2] addresses T1, purified cyclooxygenase Type 1 (COX I) (Ovis aries, UniProt P05979).
T1 construct: The COX I was purified from ram seminal vesicles; from tissue; host or cells: ram seminal vesicles
T1 sequence (P05979 25-600): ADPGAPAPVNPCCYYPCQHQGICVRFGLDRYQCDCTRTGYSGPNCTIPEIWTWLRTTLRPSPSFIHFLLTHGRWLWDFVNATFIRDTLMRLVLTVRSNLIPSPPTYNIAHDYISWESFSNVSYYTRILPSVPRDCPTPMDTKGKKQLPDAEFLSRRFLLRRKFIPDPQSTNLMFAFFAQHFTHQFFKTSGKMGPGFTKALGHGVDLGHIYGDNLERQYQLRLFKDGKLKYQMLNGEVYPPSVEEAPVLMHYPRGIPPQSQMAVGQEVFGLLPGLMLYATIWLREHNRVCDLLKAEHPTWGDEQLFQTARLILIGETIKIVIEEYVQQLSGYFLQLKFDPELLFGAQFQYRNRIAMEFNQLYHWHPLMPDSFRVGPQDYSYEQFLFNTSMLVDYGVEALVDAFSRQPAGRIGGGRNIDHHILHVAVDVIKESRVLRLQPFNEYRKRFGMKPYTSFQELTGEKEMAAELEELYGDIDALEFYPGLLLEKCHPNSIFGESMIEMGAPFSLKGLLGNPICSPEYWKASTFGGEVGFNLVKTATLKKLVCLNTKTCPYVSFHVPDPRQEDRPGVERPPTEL
As to the kind of experiment: Cyclooxygenase (COX I) inhibition, purified enzyme. Format: biochemical. To be noted: 100 μM compound, arachidonic acid 100 μM, 2.0 min at 37° C., COX I from ram seminal vesicles. On the procedure: COX I catalyzes the formation of prostaglandins and thromboxane by the oxidative metabolism of arachidonic acid. Compounds of this invention, as well as a positive control, (sulindac sulfide) were evaluated to determine whether they inhibited purified cyclooxygenase Type 1 (see Table 3 below).
The COX I was purified from ram seminal vesicles, as described by Boopathy, R. and Balasubramanian, J. 239:371-377, 1988. COX I activity was assayed as described by Evans, A. T. et al., “Actions of Cannabis Constituents on Enzymes Of Arachidonate Metabolism Anti-Inflammatory Potential,” Biochem. Pharmacol., 36:2035-2037, 1987. Purified COX I was incubated with arachidonic acid (100 μM) for 2.0 min at 37° C. in the presence or absence of test compounds. The assay was terminated by the addition of TCA, and COX I activity was determined by absorbance at […].

Turning to `c1ccc(-c2nnc(SCc3ccc4ccccc4c3)c3ccccc23)cc1` [Example 20, 1-(2′-Naphthylmethylthio)-4-Phenylphthalazine], the “% Growth Inhibition at 100 μM” value in data set [1] is given as <50%. In data set [2], the “COX I % Inhibition (100 μM)” value is <25%.

The term inhibition denotes how much of the control response was suppressed. A high value points to a response far below the control. In data set [2], `CSc1ccc(/C=C2/C(C)=C(CC(=O)O)c3cc(F)ccc32)cc1` [Sulindac sulfide, sulindac sulfide, reference compound] registered an inhibition at 100 µM of 97%.

A word on the melting point: it is the temperature, or range, at which the solid turns liquid. On to `Clc1cccc(CSc2nnc(-c3ccccc3)c3ccccc23)c1` [Example 4, 1-(3-Chlorobenzylthio)-4-Phenylphthalazine], for which the melting point is 85 °C. Further, at 100 µM the inhibition in data set [1] was 81%. In addition, the inhibition at 100 µM in data set [2] was < 25%.

`CC(C)(C)OC(=O)CSc1nnc(-c2ccccc2)c2ccccc12` [Example 21, 1-(t-Butyl 2′Mercaptoacetate)-4-Phenylphthalazine]: the “% Growth Inhibition at 100 μM” value in data set [1] amounted to 51%.

Consider `COC(=O)Cc1nnc(Sc2ccccc2)c2ccccc12` [Example 19, Methyl-2-(4-Phenylthiophthalazinyl)acetate], for which the “% Growth Inhibition at 100 μM” value in data set [1] was 61%. For the same molecule, the “COX I % Inhibition (100 μM)” value in data set [2] is given as <25%.

Regarding `Clc1cccc(CSc2nnc(-c3ccccn3)c3ccccc23)c1` [Example 22, 1-(3-Chlorobenzylthio)-4-(2-Pyridyl)-Phthalazine], the inhibition at 100 µM in data set [1] is 88%; in data set [2], < 25%.

As to `Fc1ccc(CSc2nnc(-c3ccccc3)c3ccccc23)cc1` [Example 11, 1-(4-Fluorobenzylthio)-4-Phenylphthalazine], the melting point was 104 °C. In addition, the inhibition at 100 µM in data set [1] stood at 76%. Further, in data set [2], the inhibition at 100 µM is < 25%.

`CCSc1nnc(-c2ccccc2)c2ccccc12` [Example 35, 1-Ethylthio-4-Phenylphthalazine] returned a melting point of 93 °C.

`CSc1nnc(-c2ccccc2)c2ccccc12` [Example 3, 1-Methylthio-4-Phenylphthalazine] came in with a melting point of 147 °C. Also, the inhibition at 100 µM in data set [1] was < 50%. The inhibition at 100 µM in data set [2] was 73%.

With `c1ccc(CSc2nnc(-c3ccccc3)c3ccccc23)cc1` [Example 1, 1-Benzylthio-4-Phenylphthalazine], the melting point worked out at 92 °C. The molecule also displayed an inhibition at 100 µM in data set [1] of 85%. Testing at 100 µM in data set [2] gave an inhibition of 30%.

As for `O=S(=O)(Cc1ccccc1)c1nnc(-c2ccccc2)c2ccccc12` [Example 18, 1-(Benzylsulfonyl)-4-Phenylphthalazine], the inhibition at 100 µM in data set [2] stood at 81%.

Regarding `C=CCSc1nnc(-c2ccccc2)c2ccccc12` [Example 2, 1-(2-Propenylthio)-4-Phenylphthalazine], the melting point came to 83 °C. In data set [1], this molecule registered an inhibition at 100 µM of 87%. This molecule also yielded an inhibition at 100 µM in data set [2] of 62%.
